Tests used:
HCV replicon 3a WT = experiment: Cell-based HCV replicon assay, 3a WT; conditions: Hepatitis C virus, 72 h; replicon cells, harvested day 3, replicon RNA by real time PCR (Taqman)
Description: (§1) To measure cell-based anti-HCV activity of selected compounds of the present invention, replicon cells were seeded at 5000 cells/well in 96-well collagen I-coated Nunc plates in the presence of the test compound. Various concentrations of test compound, typically in 10 serial 2-fold dilutions, were added to the assay mixture, with the starting concentration ranging from 250 μM to 1 μM. The final concentration of DMSO was 0.5%, fetal bovine serum was 5%, in the assay media. Cells were harvested on day 3 by the addition of 1× cell lysis buffer (Ambion cat #8721). The replicon RNA level was measured using real time PCR (Taqman assay). The amplicon was located in 5B. The PCR primers were: 5B.2F, ATGGACAGGCGCCCTGA (SEQ. ID. NO. 1); 5B.2R, […] (SEQ. ID. NO. 2); the probe sequence was FAM-labeled CACGCCATGCGCTGCGG (SEQ. ID. NO. 3). GAPDH RNA was used as endogenous control and was amplified in the same reaction as NS5B (multiplex PCR) using primers and VIC-labeled probe recommended by the manufacturer (PE Applied Biosystem). The real-time RT-PCR reactions were run on ABI PRISM 7900HT Sequence Detection System using the following program: 48° C. for 30 minutes, 95° C. for 10 minutes, 40 cycles of 95° C. for 15 sec, 60° C. for 1 minutes. The ΔCT values (CT5B-CTGAPDH) were plotted against the concentration of test compound and fitted to the sigmoid dose-response model using XLfit4 (MDL). […] Alternatively, to quantitate the absolute amount of replicon RNA, a standard curve was established by including serially diluted T7 transcripts of replicon RNA in the Taqman assay. All Taqman reagents were from PE Applied Biosystems. Such an assay procedure was described in detail in e.g. Malcolm et al., Antimicrobial Agents and Chemotherapy 50: 1013-1020 (2006).
(§2) HCV replicon assay data was calculated for selected compounds of the present invention using this method and is provided in the table below.

HCV replicon 1b WT = experiment: Cell-based HCV replicon assay, 1b WT; conditions: Hepatitis C virus, 72 h; replicon cells, harvested day 3, replicon RNA by real time PCR (Taqman)
Description: as §1, §2

HCV replicon 2a WT = experiment: Cell-based HCV replicon assay, 2a WT; conditions: Hepatitis C virus, 72 h; replicon cells, harvested day 3, replicon RNA by real time PCR (Taqman)
Description: as §1, §2

HCV replicon 1a Y93H = experiment: Cell-based HCV replicon assay, 1a Y93H; conditions: Hepatitis C virus, 72 h, read-out: Replicon EC50 1a Y93H
Description: as §1, §2

HCV replicon 4a WT = experiment: Cell-based HCV replicon assay, 4a WT; conditions: Hepatitis C virus, 72 h; replicon cells, harvested day 3, replicon RNA by real time PCR (Taqman)
Description: as §1, §2

HCV replicon 1a WT = experiment: Cell-based HCV replicon assay, 1a WT; conditions: Hepatitis C virus, 72 h; replicon cells, harvested day 3, replicon RNA by real time PCR (Taqman)
Description: as §1, §2

HCV replicon 2b WT = experiment: Cell-based HCV replicon assay, 2b WT; conditions: Hepatitis C virus, 72 h; replicon cells, harvested day 3, replicon RNA by real time PCR (Taqman)
Description: as §1, §2

| SMILES | EC50 (HCV replicon 3a WT) | EC50 (HCV replicon 1b WT) | EC50 (HCV replicon 2a WT) | EC50 (HCV replicon 1a Y93H) | EC50 (HCV replicon 4a WT) | EC50 (HCV replicon 1a WT) | EC50 (HCV replicon 2b WT) |
| --- | --- | --- | --- | --- | --- | --- | --- |
| COC(=O)N[C@H](C(=O)N1CCC[C@H]1c1ncc(-c2ccc3c(c2)Oc2cc(-c4cnc([C@@H]5CCCN5C(=O)[C@@H](NC(=O)OC)C(C)C)[nH]4)cc4c2N3CC4)[nH]1)C(C)C [Compound 7, Methyl [(2S)-1-{(2S)-2-[5-(4-{2-[(2S)-1-{(2S)-2-[(methoxycarbonyl)amino]-3-methylbutanoyl}pyrrolidin-2-yl]-1H-imidazol-5-yl}-1,2-dihydropyrrolo[3,2,1-kl]phenoxazin-8-yl)-1H-imidazol-2-yl]pyrrolidin-1-yl}-3-methyl-1-oxobutan-2-yl]carbamate] | 1.1 nM | 44 pM | 0.063 nM | 263 nM | 1.05 nM | 0.1 nM |  |
| COC(=O)N[C@H](C(=O)N1CC(F)(F)C[C@H]1c1ncc(-c2ccc3c(c2)Oc2ccc(-c4cnc([C@@H]5CC(F)(F)CN5C(=O)[C@@H](NC(=O)OC)C(C)C)[nH]4)c4ccn-3c24)[nH]1)C(C)C [Compound 8, Methyl [(2S)-1-{(2S)-2-[5-(3-{2-[(2S)-4,4-difluoro-1-{(2S)-2-[(methoxycarbonyl)amino]-3-methylbutanoyl}pyrrolidin-2-yl]-1H-imidazol-5-yl}pyrrolo[3,2,1-kl]phenoxazin-8-yl)-1H-imidazol-2-yl]-4,4-difluoropyrrolidin-1-yl}-3-methyl-1-oxobutan-2-yl]carbamate] | 0.31 nM | 1 pM |  | 11.5 nM | 0.019 nM | 0.004 nM |  |
| COC(=O)N[C@H](C(=O)N1CCC[C@H]1c1ncc(-c2ccc3c(c2)Oc2ccc(-c4cnc([C@@H]5CCCN5C(=O)[C@@H](NC(=O)OC)C(C)(C)C)[nH]4)c4ccn-3c24)[nH]1)C(C)(C)C [Compound 2, Methyl [(2S)-1-{(2S)-2-[5-(3-(2-[(2S)-1-(2S)-2-[(methoxycarbonyl)amino]-3,3-di-methylbutanoyl}pyrrolidin-2-yl]-1H-imidazol-5-ylpyrrolo[3,2,1-kl]phenoxazin-8-yl)-1H-imidazol-2-yl]pyrrolidin-1-yl)-3,3-dimethyl-1-oxobutan-2-yl]carbamate] | 1.26 nM | 4.43 pM | 0.018 nM | 454 nM | 4.91 nM | 0.0736 nM |  |
| COC(=O)N[C@H](C(=O)N1CCC[C@H]1c1ncc(-c2ccc3c(c2)-n2ccc4c(-c5cnc([C@@H]6CCCN6C(=O)[C@@H](NC(=O)OC)C(C)C)[nH]5)ccc(c42)O3)[nH]1)C(C)C [Compound 5, Methyl [(2S)-1-{(2S)-2-[5-(3-{2-[(2S)-1-{(2S)-2-[(methoxycarbonyl)amino]-3-methyl-butanoyl}pyrrolidin-2-yl]-1H-imidazol-5-yl}pyrrolo[3,2,1-kl]phenoxazin-9-yl)-1H-imidazol-2-yl]pyrrolidin-1-yl}-3-methyl-1-oxobutan-2-yl]carbamate] |  | 19000 pM | 20 nM |  |  | > 26 nM |  |
| COC(=O)N[C@H](C(=O)N1CCC[C@H]1c1ncc(-c2ccc3c(c2)Oc2ccc(-c4cnc([C@@H]5CCCN5C(=O)[C@@H](NC(=O)OC)C5CC5)[nH]4)c4ccn-3c24)[nH]1)C1CC1 [Compound 4, Dimethyl (pyrrolo[3,2,1-kl]phenoxazine-3,8-diylbis{1H-imidazole-5,2-diyl(2S)-pyrrolidine-2,1-diyl[(1S)-1-cyclopropyl-2-oxoethane-2,1-diyl]})biscarbamate] | 1.9 nM | 6 pM | 0.012 nM | 64.4 nM | 3.12 nM | 0.007 nM |  |
| COC(=O)N[C@H](C(=O)N1CCC[C@H]1c1ncc(-c2cc3c4c(c2)Oc2ccc(-c5cnc([C@@H]6CCCN6C(=O)[C@@H](NC(=O)OC)C(C)C)[nH]5)cc2N4CCC3)[nH]1)C(C)C [Compound 12, Methyl [(2S)-1-{(2S)-2-[5-(5-{2-[(2S)-1-{(2S)-2-[(methoxycarbonyl)amino]-3-methylbutanoyl}pyrrolidin-2-yl]-1H-imidazol-5-yl}-2,3-dihydro-1H-pyrido[3,2,1-kl]phenoxazin-10-yl)-1H-imidazol-2-yl]pyrrolidin-1-yl}-3-methyl-1-oxobutan-2-yl]carbamate] | 0.375 nM | 3 pM | 0.002 nM | 115 nM | 0.13 nM | 0.056 nM |  |
| COC(=O)N[C@H](C(=O)N1C[C@H](F)C[C@H]1c1ncc(-c2ccc3c(c2)Oc2ccc(-c4cnc([C@@H]5C[C@@H](F)CN5C(=O)[C@@H](NC(=O)OC)C(C)C)[nH]4)c4ccn-3c24)[nH]1)C(C)C [Compound 9, Methyl [(2S)-1-{(2S,4R)-4-fluoro-2-[5-(3-{2-[(2S,4R)-4-fluoro-1-{(2S)-2-[(methoxycarbonyl)amino]-3-methylbutanoyl}pyrrolidin-2-yl]-1H-imidazol-5-yl}pyrrolo[3,2,1-kl]phenoxazin-8-yl)-1H-imidazol-2-yl]pyrrolidin-1-yl}-3-methyl-1-oxobutan-2-yl]carbamate] | 1.5 nM | 5 pM |  | 27.5 nM | 0.1 nM | 0.01 nM |  |
| COC(=O)N[C@H](C(=O)N1CCC[C@H]1c1ncc(-c2ccc3c(c2)Oc2cc(-c4cnc([C@@H]5CCCN5C(=O)[C@@H](NC(=O)OC)C(C)C)[nH]4)cc4c2N3CCC4)[nH]1)C(C)C [Compound 11, Methyl [(2S)-1-{(2S)-2-[5-(5-{2-[(2S)-1-{(2S)-2-[(methoxycarbonyl)amino]-3-methylbutanoyl}pyrrolidin-2-yl]-1H-imidazol-5-yl}-2,3-dihydro-1H-pyrido[3,2,1-kl]phenoxazin-9-yl)-1H-imidazol-2-yl]pyrrolidin-1-yl}-3-methy-1-oxobutan-2-yl]carbamate] | 10 nM | 31 pM | 0.345 nM | 504 nM | 1.02 nM | 0.1 nM |  |
| COC(=O)N[C@@H](C(=O)N1CCC[C@H]1c1ncc(-c2ccc3c(c2)Oc2ccc(-c4cnc([C@@H]5CCCN5C(=O)[C@H](NC(=O)OC)c5ccccc5)[nH]4)c4ccn-3c24)[nH]1)c1ccccc1 [Compound 3, Dimethyl (pyrrolo[3,2,1-kl]phenoxazine-3,8-diylbis{1H-imidazole-5,2-diyl(2S)pyrrolidine-2,1-diyl[(1R)-2-oxo-1-phenylethane-2,1-diyl]})biscarbamate] | 0.019 nM | 7 pM | 0.006 nM | 348 nM | 0.04 nM | 0.097 nM |  |
| COC(=O)N[C@H](C(=O)N1CCC[C@H]1c1ncc(-c2ccc3c(c2)Oc2ccc(-c4cnc([C@@H]5CCCN5C(=O)[C@@H](NC(=O)OC)C(C)C)[nH]4)c4cnn-3c24)[nH]1)C(C)C [Compound 10, Methyl [(2S)-1-{(2S)-2-[5-(3-{2-[(2S)-1-{(2S)-2-[(methoxycarbonyl)amino]-3-methylbutanoyl}pyrrolidin-2-yl]-1H-imidazol-5-yl}pyrazolo[4,5,1-kl]phenoxazin-8-yl)-1 H-imidazol-2-yl]pyrrolidin-1-yl}-3-methyl-1-oxobutan-2-yl]carbamate] | 0.69 nM | 5 pM | 0.003 nM | 35.1 nM | 0.37 nM | 0.027 nM | 49 nM |
| COC(=O)N[C@H](C(=O)N1CC(F)(F)C[C@H]1c1ncc(-c2ccc3c(c2)Oc2ccc(-c4cnc([C@@H]5CC(F)(F)CN5C(=O)[C@@H](NC(=O)OC)C(C)C)[nH]4)c4c2N3CCC4)[nH]1)C(C)C [Compound 19] | 10 nM | 3 pM | 0.53 nM |  | 0.17 nM | 0.1 nM | 122 nM |
| COC(=O)N[C@H](C(=O)N1CCC[C@H]1c1ncc(-c2cc3c4c(c2)Oc2ccc(-c5cnc([C@@H]6CCCN6C(=O)[C@@H](NC(=O)OC)C(C)C)[nH]5)cc2C4CO3)[nH]1)C(C)C (stereo partly drawn) [Compound 15, Methyl [(2S)-1-{(2S)-2-[5-(4-{2-[(2S)-1-{(2S)-2-[(methoxycarbonyl)amino]-3-methylbutanoyl}pyrrolidin-2-yl]-1H-imidazol-5-yl}-1,10b-dihydrofuro[2,3,4-kl]xanthen-9-yl)-1H-imidazol-2-yl]pyrrolidin-1-yl}-3-methyl-1-oxobutan-2-yl]carbamate] | 0.52 nM | 4 pM |  | 83 nM | 0.39 nM | 0.06 nM |  |
| COC(=O)N[C@H](C(=O)N1CC(F)(F)C[C@H]1c1ncc(-c2ccc3c(c2)Oc2ccc(-c4cnc([C@@H]5CC(F)(F)CN5C(=O)[C@@H](NC(=O)OC)C(C)C)[nH]4)c4c2N3CC4)[nH]1)C(C)C [Compound 18] | 0.936 nM | 2 pM |  | 32 nM | 0.056 nM | 0.009 nM | 40 nM |
